According to PubChem BioAssay (NCI):
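All cell lines were grown in 96-well plates and treated with compound for 48 hours. Definition used: TGI = concentration required for complete inhibition of growth.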

How the values were obtained:
Test in all cases: NCI-60 cell line screen, 48 h
LXFL 529 NSCLC = test system: LXFL 529 NSCLC
XF 498 CNS = test system: XF 498 CNS
SK-MEL-5 melanoma = test system: SK-MEL-5 melanoma
A498 renal = test system: A498 renal
SNB-75 CNS = test system: SNB-75 CNS
DMS 273 small cell lung = test system: DMS 273 small cell lung
HL-60(TB) leukemia = test system: HL-60(TB) leukemia
DMS 114 small cell lung = test system: DMS 114 small cell lung
NCI-H522 lung = test system: NCI-H522 lung
SF-268 CNS = test system: SF-268 CNS
HT29 colon = test system: HT29 colon
TK-10 renal = test system: TK-10 renal
SNB-78 CNS = test system: SNB-78 CNS
COLO 205 colon = test system: COLO 205 colon
NCI-H226 lung = test system: NCI-H226 lung
HCC-2998 colon = test system: HCC-2998 colon
KM20L2 colon = test system: KM20L2 colon
786-0 renal = test system: 786-0 renal
SF-539 CNS = test system: SF-539 CNS
M19-MEL melanoma = test system: M19-MEL melanoma
RXF 393 renal = test system: RXF 393 renal
CAKI-1 renal = test system: CAKI-1 renal
HCT-116 colon = test system: HCT-116 colon
SNB-19 CNS = test system: SNB-19 CNS
SW-620 colon = test system: SW-620 colon
OVCAR-3 ovarian = test system: OVCAR-3 ovarian
UACC-257 melanoma = test system: UACC-257 melanoma
NCI-H23 lung = test system: NCI-H23 lung
SN12C renal = test system: SN12C renal
UO-31 renal = test system: UO-31 renal
HCT-15 colon = test system: HCT-15 colon
LOX IMVI melanoma = test system: LOX IMVI melanoma
UACC-62 melanoma = test system: UACC-62 melanoma
HOP-92 NSCLC = test system: HOP-92 NSCLC
OVCAR-5 ovarian = test system: OVCAR-5 ovarian
DLD-1 colon = test system: DLD-1 colon
SR leukemia = test system: SR leukemia
OVCAR-8 ovarian = test system: OVCAR-8 ovarian
SK-MEL-28 melanoma = test system: SK-MEL-28 melanoma
SF-295 CNS = test system: SF-295 CNS
SK-OV-3 ovarian = test system: SK-OV-3 ovarian
A549 NSCLC = test system: A549 NSCLC
EKVX NSCLC = test system: EKVX NSCLC
KM12 colon = test system: KM12 colon
NCI-H460 lung = test system: NCI-H460 lung
ACHN renal = test system: ACHN renal
CCRF-CEM leukemia = test system: CCRF-CEM leukemia
IGROV1 ovarian = test system: IGROV1 ovarian
U251 CNS = test system: U251 CNS
MALME-3M melanoma = test system: MALME-3M melanoma
MOLT-4 leukemia = test system: MOLT-4 leukemia
RPMI-8226 leukemia = test system: RPMI-8226 leukemia
K-562 leukemia = test system: K-562 leukemia
OVCAR-4 ovarian = test system: OVCAR-4 ovarian
M14 melanoma = test system: M14 melanoma
SK-MEL-2 melanoma = test system: SK-MEL-2 melanoma
HOP-62 NSCLC = test system: HOP-62 NSCLC

`C[C@]12CCC(=O)C=C1CC[C@@H]1[C@@H]2[C@@H](O)C[C@@]2(C)[C@H]1CC[C@]2(O)C(=O)COC(=O)CCC1CCCC1` was tested, and the TGI (LXFL 529 NSCLC) was greater than 100 µM, the TGI (XF 498 CNS) was greater than 100 µM and the TGI (SK-MEL-5 melanoma) was greater than 100 µM. The TGI (A498 renal) was greater than 100 µM, the TGI (SNB-75 CNS) was greater than 100 µM and the TGI (DMS 273 small cell lung) was greater than 100 µM. The TGI (HL-60(TB) leukemia) was greater than 100 µM, the TGI (DMS 114 small cell lung) was greater than 100 µM and the TGI (NCI-H522 lung) was greater than 100 µM. The TGI (SF-268 CNS) was greater than 100 µM, the TGI (HT29 colon) was greater than 100 µM and the TGI (TK-10 renal) was greater than 100 µM. For the same compound, the TGI (SNB-78 CNS) was greater than 100 µM, the TGI (COLO 205 colon) was greater than 100 µM and the TGI (NCI-H226 lung) was greater than 100 µM. For the same compound, the TGI (HCC-2998 colon) was greater than 100 µM, the TGI (KM20L2 colon) was greater than 100 µM and the TGI (786-0 renal) was greater than 100 µM. The TGI (SF-539 CNS) was greater than 100 µM, the TGI (M19-MEL melanoma) was greater than 100 µM and the TGI (RXF 393 renal) was greater than 100 µM. For the same compound, the TGI (CAKI-1 renal) was greater than 100 µM, the TGI (HCT-116 colon) was greater than 100 µM and the TGI (SNB-19 CNS) was greater than 100 µM. For the same compound, the TGI (SW-620 colon) was greater than 100 µM, the TGI (OVCAR-3 ovarian) was greater than 100 µM and the TGI (UACC-257 melanoma) was greater than 100 µM. It also gave a TGI (NCI-H23 lung) greater than 100 µM, a TGI (SN12C renal) greater than 100 µM and a TGI (UO-31 renal) greater than 100 µM. It also gave a TGI (HCT-15 colon) greater than 100 µM, a TGI (LOX IMVI melanoma) greater than 100 µM and a TGI (UACC-62 melanoma) greater than 100 µM. The TGI (HOP-92 NSCLC) was greater than 100 µM, the TGI (OVCAR-5 ovarian) was greater than 100 µM and the TGI (DLD-1 colon) was greater than 100 µM. For the same compound, the TGI (SR leukemia) was greater than 100 µM, the TGI (OVCAR-8 ovarian) was greater than 100 µM and the TGI (SK-MEL-28 melanoma) was greater than 100 µM. For the same compound, the TGI (SF-295 CNS) was greater than 100 µM, the TGI (SK-OV-3 ovarian) was greater than 100 µM and the TGI (A549 NSCLC) was greater than 100 µM. The TGI (EKVX NSCLC) was greater than 100 µM, the TGI (KM12 colon) was greater than 100 µM and the TGI (NCI-H460 lung) was greater than 100 µM. The TGI (ACHN renal) was greater than 100 µM, the TGI (CCRF-CEM leukemia) was greater than 100 µM and the TGI (IGROV1 ovarian) was greater than 100 µM. For the same compound, the TGI (U251 CNS) was greater than 100 µM, the TGI (MALME-3M melanoma) was greater than 100 µM and the TGI (MOLT-4 leukemia) was greater than 100 µM.
For `Cc1cccc(N=C2NC(=O)C(CC(=O)Nc3ccc(C)cc3C)S2)c1` (stereo not given), the TGI (LXFL 529 NSCLC) was greater than 100 µM, the TGI (XF 498 CNS) was greater than 100 µM and the TGI (SK-MEL-5 melanoma) was greater than 100 µM. The TGI (A498 renal) was greater than 100 µM, the TGI (SNB-75 CNS) was greater than 100 µM and the TGI (DMS 273 small cell lung) was greater than 100 µM. It also gave a TGI (HL-60(TB) leukemia) greater than 100 µM, a TGI (DMS 114 small cell lung) greater than 100 µM and a TGI (NCI-H522 lung) greater than 100 µM. The TGI (SF-268 CNS) was greater than 100 µM, the TGI (RPMI-8226 leukemia) was greater than 100 µM and the TGI (HT29 colon) was greater than 100 µM. It also gave a TGI (TK-10 renal) greater than 100 µM, a TGI (SNB-78 CNS) greater than 100 µM and a TGI (NCI-H226 lung) greater than 100 µM. It also gave a TGI (HCC-2998 colon) greater than 100 µM, a TGI (KM20L2 colon) greater than 100 µM and a TGI (786-0 renal) greater than 100 µM. It also gave a TGI (SF-539 CNS) greater than 100 µM, a TGI (M19-MEL melanoma) greater than 100 µM and a TGI (K-562 leukemia) greater than 100 µM. The TGI (RXF 393 renal) was greater than 100 µM, the TGI (CAKI-1 renal) was greater than 100 µM and the TGI (HCT-116 colon) was greater than 100 µM. It also gave a TGI (SNB-19 CNS) greater than 100 µM, a TGI (SW-620 colon) greater than 100 µM and a TGI (OVCAR-3 ovarian) greater than 100 µM. It also gave a TGI (UACC-257 melanoma) greater than 100 µM, a TGI (NCI-H23 lung) greater than 100 µM and a TGI (OVCAR-4 ovarian) greater than 100 µM. The TGI (SN12C renal) was greater than 100 µM, the TGI (UO-31 renal) was greater than 100 µM and the TGI (HCT-15 colon) was greater than 100 µM. For the same compound, the TGI (LOX IMVI melanoma) was greater than 100 µM, the TGI (UACC-62 melanoma) was greater than 100 µM and the TGI (HOP-92 NSCLC) was greater than 100 µM. The TGI (OVCAR-5 ovarian) was greater than 100 µM, the TGI (DLD-1 colon) was greater than 100 µM and the TGI (SR leukemia) was greater than 100 µM. It also gave a TGI (OVCAR-8 ovarian) greater than 100 µM, a TGI (M14 melanoma) greater than 100 µM and a TGI (SK-MEL-28 melanoma) greater than 100 µM. For the same compound, the TGI (SF-295 CNS) was greater than 100 µM, the TGI (SK-MEL-2 melanoma) was greater than 100 µM and the TGI (A549 NSCLC) was greater than 100 µM. For the same compound, the TGI (EKVX NSCLC) was greater than 100 µM, the TGI (NCI-H460 lung) was greater than 100 µM and the TGI (ACHN renal) was greater than 100 µM. It also gave a TGI (CCRF-CEM leukemia) greater than 100 µM, a TGI (IGROV1 ovarian) greater than 100 µM and a TGI (U251 CNS) greater than 100 µM. It also gave a TGI (MALME-3M melanoma) greater than 100 µM and a TGI (MOLT-4 leukemia) greater than 100 µM.
With `O=C1CCN2CCC(=O)c3c2c(cc2ccccc32)N1` the TGI (LXFL 529 NSCLC) was greater than 100 µM, the TGI (XF 498 CNS) was 93.5 µM and the TGI (SK-MEL-5 melanoma) was greater than 100 µM. The TGI (A498 renal) was greater than 100 µM, the TGI (SNB-75 CNS) was greater than 100 µM and the TGI (DMS 273 small cell lung) was greater than 100 µM. For the same compound, the TGI (DMS 114 small cell lung) was greater than 100 µM, the TGI (NCI-H522 lung) was greater than 100 µM and the TGI (SF-268 CNS) was greater than 100 µM. It also gave a TGI (RPMI-8226 leukemia) greater than 100 µM, a TGI (HT29 colon) greater than 100 µM and a TGI (TK-10 renal) greater than 100 µM. It also gave a TGI (SNB-78 CNS) greater than 100 µM, a TGI (COLO 205 colon) greater than 100 µM and a TGI (NCI-H226 lung) greater than 100 µM. The TGI (HCC-2998 colon) was greater than 100 µM, the TGI (HOP-62 NSCLC) was greater than 100 µM and the TGI (KM20L2 colon) was greater than 100 µM. It also gave a TGI (786-0 renal) greater than 100 µM, a TGI (SF-539 CNS) greater than 100 µM and a TGI (M19-MEL melanoma) greater than 100 µM. It also gave a TGI (K-562 leukemia) greater than 100 µM, a TGI (RXF 393 renal) greater than 100 µM and a TGI (CAKI-1 renal) greater than 100 µM. It also gave a TGI (HCT-116 colon) greater than 100 µM, a TGI (SNB-19 CNS) greater than 100 µM and a TGI (SW-620 colon) greater than 100 µM. The TGI (OVCAR-3 ovarian) was greater than 100 µM, the TGI (UACC-257 melanoma) was greater than 100 µM and the TGI (SN12C renal) was greater than 100 µM. It also gave a TGI (UO-31 renal) greater than 100 µM, a TGI (HCT-15 colon) greater than 100 µM and a TGI (LOX IMVI melanoma) greater than 100 µM. The TGI (UACC-62 melanoma) was greater than 100 µM, the TGI (OVCAR-5 ovarian) was greater than 100 µM and the TGI (DLD-1 colon) was greater than 100 µM. For the same compound, the TGI (OVCAR-8 ovarian) was greater than 100 µM, the TGI (M14 melanoma) was greater than 100 µM and the TGI (SF-295 CNS) was greater than 100 µM. The TGI (SK-OV-3 ovarian) was greater than 100 µM, the TGI (SK-MEL-2 melanoma) was greater than 100 µM and the TGI (A549 NSCLC) was greater than 100 µM. The TGI (EKVX NSCLC) was greater than 100 µM, the TGI (KM12 colon) was greater than 100 µM and the TGI (NCI-H460 lung) was greater than 100 µM. The TGI (ACHN renal) was greater than 100 µM, the TGI (CCRF-CEM leukemia) was greater than 100 µM and the TGI (IGROV1 ovarian) was greater than 100 µM. The TGI (U251 CNS) was greater than 100 µM, the TGI (MALME-3M melanoma) was greater than 100 µM and the TGI (MOLT-4 leukemia) was greater than 100 µM.
